Results on 3 molecules are retold here after PMC4071596, “Eurothiocin A and B, Sulfur-Containing Benzofurans from a Soft Coral-Derived Fungus Eurotium rubrum SH-823” (Marine Drugs, 2014).

One data set has as its target α-glucosidase (Saccharomyces cerevisiae, UniProt P53341). In words: α-Glucosidase inhibitory activity assay (p-nitrophenyl-α-glucopyranoside hydrolysis, absorbance at 400 nm). As to conditions: for type of inhibition of α-glucosidase (Lineweaver-Burk plot method): kinetic studies at increasing concentration of substrates and inhibitors. The class given is biochemical. How it is done: α-Glucosidase was assayed according to standard procedures by following the hydrolysis of nitrophenyl glycosides by monitoring formation of p-nitrophenol spectrometrically at 400 nm. The reaction mixture (final volume, 1 mL) consisted of the enzyme solution (20 μL, Sigma 9001-42-7, E.C 3.2.1.20), substrate (10 mM p-nitrophenyl-α-glucopyranoside, 20 μL, Fluka, BioChemika, Buchs, Switzerland) in 50 mM potassium phosphate buffer (pH 7.0) and test sample dissolved in DMSO (20 μL). The inhibitors were pre-incubated with the enzyme at 37 °C for 30 min, and the substrate was then added. The reaction was monitored spectrophotometrically by measuring the absorbance at 400 nm. […] The inhibitory activity of test compound was determined as a percentage in comparison to a blank according with the following equation: The inhibition rates (%) = [(ODcontrol − ODcontrol blank) − (ODtest − ODtest blank)]/(ODcontrol − ODcontrol blank) × 100%. The IC50 values of compounds were calculated by the nonlinear regression analysis and expressed as the mean ± SD of two distinct experiments. Kinetic parameters were determined using the Lineweaver-Burk double-reciprocal plot method at increasing concentration of substrates and inhibitors.

α-glucosidase, sequence (P53341 whole entry): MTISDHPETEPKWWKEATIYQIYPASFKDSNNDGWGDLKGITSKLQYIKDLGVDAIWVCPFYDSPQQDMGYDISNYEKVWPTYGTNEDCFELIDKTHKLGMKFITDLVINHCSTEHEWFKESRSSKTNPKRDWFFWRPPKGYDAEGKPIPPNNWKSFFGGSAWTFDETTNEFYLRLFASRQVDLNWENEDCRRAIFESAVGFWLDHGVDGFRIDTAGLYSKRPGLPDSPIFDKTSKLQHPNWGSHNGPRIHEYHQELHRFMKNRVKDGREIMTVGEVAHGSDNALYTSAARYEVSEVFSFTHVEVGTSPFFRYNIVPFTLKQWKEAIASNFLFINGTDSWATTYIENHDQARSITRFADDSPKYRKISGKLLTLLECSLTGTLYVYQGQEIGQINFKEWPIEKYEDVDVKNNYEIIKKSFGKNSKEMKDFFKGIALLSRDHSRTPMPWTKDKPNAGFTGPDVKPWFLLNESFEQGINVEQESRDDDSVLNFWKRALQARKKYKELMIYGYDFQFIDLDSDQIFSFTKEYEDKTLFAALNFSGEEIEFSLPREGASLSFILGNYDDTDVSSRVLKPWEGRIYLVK

As a reminder, the IC50 is the concentration that inhibits the measured activity by half. A high value points to a need for much substance. Consider butyrolactone I [Compound 4], for which, on α-glucosidase (mean ± SD from two independent experiments, pre-incubated with the enzyme at 37 °C for 30 min, pH 7.0), the IC50 is 98.5 ± 3.3 µM.

The term melting point denotes the temperature, or range, at which the solid turns liquid. For the molecule `CSC(=O)c1c(C)cc2c(c1O)CC(C(C)(O)CO)O2` (stereo not shown) [Compound 2, eurothiocin B], the melting point was 122 to 123 °C. In addition, at α-glucosidase, the “type of inhibition of α-glucosidase (Lineweaver-Burk plot method)” value was “competitive inhibitors”.

As to `CSC(=O)c1c(C)cc2c(c1O)CC(C(C)(C)O)O2` (stereo not shown) [Compound 1, eurothiocin A], the “type of inhibition of α-glucosidase (Lineweaver-Burk plot method)” value on α-glucosidase is listed as “competitive inhibitors”.
